Type in all cases: cell-based
For one assay, the system named is E. coli DH5α. Put plainly: Antibacterial activity: MIC and growth curve against E. coli DH5α in 96-well plate. To be noted: minimal inhibitory concentration against E. coli DH5α; 96-well plate, 5×10^5 CFU/mL, 37° C., judged after 8 h. The method in brief: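 Log-phase DH5α (OD600 about 0.5, 37° C, 185 rpm in LB) was pelleted, resuspended in fresh LB and seeded at 5×10^5 CFU/mL with recombinant protein at 50, 25 and 12.5 μg/mL (two-fold series), in triplicate. Plates were shaken at 175 rpm, 37° C, and OD600 was read every 30 min. MIC was the lowest concentration with no growth.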

The next assay has as its system Aeromonas hydrophila. Kind of assay: MIC against Gram-negative bacteria: Aeromonas hydrophila. To be noted: 5×10^5 CFU/mL. Put shortly:
(§1)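 Broth microdilution, LB medium, final inoculum 5×10^5 CFU/mL from McFarland 0.5 cultures. Recombinant human EGF domain proteins tested in two-fold steps, n=3. MIC: lowest concentration, no growth.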

The subject of another assay is Proteus mirabilis. Kind of assay: MIC against Gram-negative bacteria: Proteus mirabilis. To be noted: 5×10^5 CFU/mL. Put shortly:
as §1

The subject of another assay is Moraxella catarrhalis. Kind of assay: MIC against Gram-negative bacteria: Moraxella catarrhalis. To be noted: 5×10^5 CFU/mL. The method in brief:
as §1

The test system of the next assay is Citrobacter diversus. Put plainly: MIC against Gram-negative bacteria: Citrobacter diversus. The settings on record: 5×10^5 CFU/mL. The method in brief: as §1
In a further assay the test system is E. coli BL21. Put plainly: MIC against Gram-negative bacteria: E. coli BL21. The settings on record: 5×10^5 CFU/mL. Put shortly: as §1
A further assay deals with Pseudomonas aeruginosa. Kind of assay: MIC against Gram-negative bacteria: Pseudomonas aeruginosa. The settings on record: 5×10^5 CFU/mL. Put shortly:
as §1

The next assay concerns Klebsiella pneumonia. Put plainly: MIC against Gram-negative bacteria: Klebsiella pneumonia. To be noted: 5×10^5 CFU/mL. The method in brief:
as §1

In a further assay the test system is Proteus vulgaris. Put plainly: MIC against Gram-negative bacteria: Proteus vulgaris. To be noted: 5×10^5 CFU/mL. The method in brief:
as §1

A further assay concerns Enterobacter cloacae. Kind of assay: MIC against Gram-negative bacteria: Enterobacter cloacae. To be noted: 5×10^5 CFU/mL. Put shortly:
as §1

In another assay the test system is Serratia marcescens. Kind of assay: MIC against Gram-negative bacteria: Serratia marcescens. The settings on record: 5×10^5 CFU/mL. The method in brief: as §1
Setting [1] is: 10 h cultivation at 37° C., two-fold serial dilution.

In the case of “PRT713 (GTNVCARDNGGCKQLCLYRGNSRRTCACAHGYLAEDGVTCL; listed as Homo sapiens)”, the MIC with E. coli DH5α amounted to 50 µg/mL. For the same substance, the “MIC A. hydrophila” value against Aeromonas hydrophila (96-well plate, 37° C., 10 h) amounted to 12.5 µg/mL. Also, the “MIC P. mirabilis” value in the assay with Proteus mirabilis (96-well plate, 37° C., 10 h) amounted to 50 µg/mL. In the assay on Moraxella catarrhalis (96-well plate, 37° C., 10 h), the “MIC M. catarrhalis” value stood at 12.5 µg/mL. Besides, the “MIC C. diversus” value in the assay with Citrobacter diversus (96-well plate, 37° C., 10 h) amounted to 50 µg/mL. Further, the “MIC E. coli BL21” value in the assay on E. coli BL21 (96-well plate, 37° C., 10 h) was 25 µg/mL. Besides, the “MIC P. aeruginosa” value against Pseudomonas aeruginosa (96-well plate, 37° C., 10 h) was 12.5 µg/mL. In addition, the “MIC K. pneumonia” value against Klebsiella pneumonia (96-well plate, 37° C., 10 h) was 12.5 µg/mL. In the assay on Proteus vulgaris (96-well plate, 37° C., 10 h), the “MIC P. vulgaris” value came to 12.5 µg/mL. The “MIC E. cloacae” value in the assay on Enterobacter cloacae (96-well plate, 37° C., 10 h) amounted to 50 µg/mL. Moreover, the “MIC S. marcescens” value against Serratia marcescens (96-well plate, 37° C., 10 h) stood at 50 µg/mL.
As for “PRT813 (FGVNCSSSCSCGGAPCHGVTGQCRCPPGRTGEDCE; listed as Homo sapiens)”, the MIC in the assay with E. coli DH5α was 50 µg/mL. Also, the “MIC (μg/mL) A. hydrophila” value against Aeromonas hydrophila (A. hydrophila, 10 h cultivation at 37° C.) was determined as 50 µg/mL. Also, the “MIC (μg/mL) P. mirabilis” value in the assay on Proteus mirabilis (P. mirabilis, 10 h cultivation at 37° C.) is 25 µg/mL. For the same substance, the “MIC (μg/mL) M. catarrhalis” value with Moraxella catarrhalis (M. catarrhalis, 10 h cultivation at 37° C.) was determined as 25 µg/mL. Also, in the assay with Citrobacter diversus (C. diversus, 10 h cultivation at 37° C.), the “MIC (μg/mL) C. diversus” value worked out at 25 µg/mL. The “MIC (μg/mL) E. coli BL21” value in the assay on E. coli BL21 (E. coli BL21, 10 h cultivation at 37° C.) was determined as 50 µg/mL. Also, in the assay with Pseudomonas aeruginosa (P. aeruginosa, 10 h cultivation at 37° C.), the “MIC (μg/mL) P. aeruginosa” value is 50 µg/mL. In the assay with Klebsiella pneumonia (K. pneumonia, 10 h cultivation at 37° C.), the “MIC (μg/mL) K. pneumonia” value stood at 50 µg/mL. Besides, in the assay with Proteus vulgaris (P. vulgaris, 10 h cultivation at 37° C.), the “MIC (μg/mL) P. vulgaris” value was 50 µg/mL. Besides, the “MIC (μg/mL) E. cloacae” value in the assay with Enterobacter cloacae (E. cloacae, 10 h cultivation at 37° C.) was 25 µg/mL. For the same substance, the “MIC (μg/mL) S. marcescens” value with Serratia marcescens (S. marcescens, 10 h cultivation at 37° C.) was determined as 12.5 µg/mL.
As to “PRT577 (CACHPSRARGPTCNEFTGQCHCRAGFGGRTCSECQELHWGDPGLQCHA; listed as Homo sapiens)”, in the assay on E. coli DH5α, the minimal inhibitory concentration (MIC) was found to be 12.5 µg/mL. The “MIC against A. hydrophila” value against Aeromonas hydrophila (96-well plate, 37° C., 10 h) came out at 25 µg/mL. Besides, the “MIC against P. mirabilis” value in the assay with Proteus mirabilis (96-well plate, 37° C., 10 h) is 50 µg/mL. Moreover, the “MIC against M. catarrhalis” value against Moraxella catarrhalis (96-well plate, 37° C., 10 h) was determined as 12.5 µg/mL. The “MIC against C. diversus” value against Citrobacter diversus (96-well plate, 37° C., 10 h) was 50 µg/mL. Also, the “MIC against E. coli BL21” value against E. coli BL21 (96-well plate, 37° C., 10 h) was found to be 25 µg/mL. The “MIC against P. aeruginosa” value against Pseudomonas aeruginosa (96-well plate, 37° C., 10 h) turned out to be 50 µg/mL. Moreover, the “MIC against K. pneumonia” value in the assay with Klebsiella pneumonia (96-well plate, 37° C., 10 h) is 25 µg/mL. Moreover, the “MIC against P. vulgaris” value in the assay on Proteus vulgaris (96-well plate, 37° C., 10 h) stood at 12.5 µg/mL. Further, the “MIC against E. cloacae” value with Enterobacter cloacae (96-well plate, 37° C., 10 h) stood at 12.5 µg/mL. In addition, the “MIC against S. marcescens” value with Serratia marcescens (96-well plate, 37° C., 10 h) came out at 50 µg/mL.
With “PRT467 (ECPGGCRNGGFCNERRICECPDGFHGPHCE; listed as Homo sapiens)”, the MIC against E. coli DH5α is 12.5 µg/mL. Further, the “MIC against A. hydrophila” value in the assay with Aeromonas hydrophila (96-well plate, 37° C., 10 h) turned out to be 25 µg/mL. Moreover, the “MIC against P. mirabilis” value in the assay with Proteus mirabilis (96-well plate, 37° C., 10 h) came out at 12.5 µg/mL. Also, the “MIC against M. catarrhalis” value in the assay on Moraxella catarrhalis (96-well plate, 37° C., 10 h) came out at 25 µg/mL. Also, the “MIC against C. diversus” value against Citrobacter diversus (96-well plate, 37° C., 10 h) was found to be 50 µg/mL. For the same substance, in the assay on E. coli BL21 (96-well plate, 37° C., 10 h), the “MIC against E. coli BL21” value was 12.5 µg/mL. Moreover, in the assay with Pseudomonas aeruginosa (96-well plate, 37° C., 10 h), the “MIC against P. aeruginosa” value turned out to be 12.5 µg/mL. Further, the “MIC against K. pneumonia” value in the assay on Klebsiella pneumonia (96-well plate, 37° C., 10 h) came out at 25 µg/mL. Further, the “MIC against P. vulgaris” value against Proteus vulgaris (96-well plate, 37° C., 10 h) was determined as 25 µg/mL. Moreover, the “MIC against E. cloacae” value in the assay on Enterobacter cloacae (96-well plate, 37° C., 10 h) worked out at 12.5 µg/mL. Moreover, the “MIC against S. marcescens” value against Serratia marcescens (96-well plate, 37° C., 10 h) is 50 µg/mL.
Take “PRT1175 (AEHACLSDPCHNRGSCKETSLGFECECSPGWTGPTCS; listed as Homo sapiens)”: the minimum inhibitory concentration (MIC) against E. coli DH5α turned out to be 12.5 µg/mL. The “MIC A. hydrophila” value against Aeromonas hydrophila (setting [1]) is 50 µg/mL. In the assay on Proteus mirabilis (setting [1]), the “MIC P. mirabilis” value was found to be 25 µg/mL. In the assay with Moraxella catarrhalis (setting [1]), the “MIC M. catarrhalis” value stood at 12.5 µg/mL. In addition, the “MIC C. diversus” value against Citrobacter diversus (setting [1]) was found to be 25 µg/mL. Further, in the assay on E. coli BL21 (setting [1]), the “MIC E. coli BL21” value was determined as 25 µg/mL. In the assay on Pseudomonas aeruginosa (setting [1]), the “MIC P. aeruginosa” value stood at 50 µg/mL. Further, in the assay on Klebsiella pneumonia (setting [1]), the “MIC K. pneumonia” value stood at 25 µg/mL. Also, the “MIC P. vulgaris” value against Proteus vulgaris (setting [1]) is 50 µg/mL. For the same substance, the “MIC E. cloacae” value against Enterobacter cloacae (setting [1]) was 12.5 µg/mL. The “MIC S. marcescens” value against Serratia marcescens (setting [1]) is 25 µg/mL.

Usually MIC stands for the lowest concentration found to suppress growth. A higher MIC goes with a need for much substance.
